Assay results as given in ChEMBL document CHEMBL1124722, “Synthesis and anticonvulsant activity of 2-benzylglutarimides” (J Med Chem, 1990).
Calls of active or inactive are those of the source. The calls are words filed in the database; no cut-off is given here.

Key:
[1] = system: Mus musculus; test: The Neurologic toxicity by measuring rotarod test after 0.5 h; No toxicity up to 300 mg/kg; format: organism-based; design: dose 300 mg/kg; conditions: in vivo
[2] = system: Mus musculus; test: The Neurologic toxicity by measuring rotarod after 4 hr; No toxicity up to 300 mg/kg; format: organism-based; design: dose 300 mg/kg; conditions: in vivo
[3] = system: Mus musculus; test: Anticonvulsant activity against maximal electroshock induced seizures (MES) after 0.5 h; Not active up to 300 mg/kg; format: functional, organism-based; design: dose 300 mg/kg
[4] = system: Mus musculus; test: Anticonvulsant activity against maximal electroshock induced seizures after 4 hr; Not active up to 300 mg/kg.; format: functional, organism-based; design: dose 300 mg/kg
[5] = system: Mus musculus; test: Anticonvulsant activity against subcutaneous administered Metrazol induced seizures (scMET) after 0.5 hr; Not active up to 300 mg/kg; format: functional, organism-based; design: dose 300 mg/kg
[6] = system: Mus musculus; test: Anticonvulsant activity against subcutaneous administered Metrazol induced seizures (scMET) after 4 hr at 300 mg/kg; Active; format: functional, organism-based; design: dose 300 mg/kg
[7] = system: Mus musculus; test: The compound was tested for anticonvulsant activity against (subcutaneous administered) Metrazol induced seizures after intraperitoneal administration; format: functional
[8] = system: Mus musculus; test: The compound was tested for anticonvulsant activity against (subcutaneous administered) bicuculline induced seizures after intraperitoneal administration; format: functional
[9] = Protective index was calculated (TD50/ED50) in MES assay in mice after oral administration; format: functional
[10] = system: Mus musculus; test: Anticonvulsant activity against maximal electroshock induced seizures (MES) after 0.5 hr at 300 mg/kg; Active; format: functional, organism-based; design: dose 300 mg/kg
[11] = Ratio of LD50/HD50 was determined; format: functional
[12] = The cytotoxicity (given orally) […] in mice; format: organism-based; conditions: mouse, in vivo
[13] = The cytotoxicity after intraperitoneal administration; format: organism-based; conditions: mouse, in vivo, ip
[14] = system: Mus musculus; test: The effective dose of compound was tested against subcutaneous administered Metrazol induced seizures after intraperitoneal administration.; format: functional
[15] = system: Mus musculus; test: The effective dose of compound was tested against maximal electroshock induced seizures after intraperitoneal administration; format: functional; conditions: ip
[16] = The cytotoxicity (given orally) […] in rat; format: organism-based; conditions: in vivo
[17] = system: Mus musculus; test: Anticonvulsant activity against subcutaneous administered Metrazol induced seizures (scMET) after 0.5 hr at 30 mg/kg; Active; format: functional, organism-based; design: dose 30 mg/kg
[18] = system: Mus musculus; test: The effective dose of compound was tested against maximal electroshock induced seizures after oral administration in mice; format: functional
[19] = species on record: Mus musculus; test: Time of peak effect toxicity against maximal electroshock induced seizures; format: organism-based; conditions: in vivo
[20] = Protective index was calculated (TD50/ED50) in scMET assay in mice after intraperitoneal administration; format: functional
[21] = system: Mus musculus; test: The compound was tested for anticonvulsant activity against (subcutaneous administered) strychnine induced seizures after intraperitoneal administration; format: functional
[22] = Protective index was calculated (TD50/ED50) in MES assay in rat after oral administration; format: functional
[23] = species on record: Mus musculus; test: Median lethal dose was measured after 24 hr; format: functional
[24] = Protective index was calculated (TD50/ED50) in scMET assay in rat after oral administration; format: functional
[25] = system: Mus musculus; test: Anticonvulsant activity against maximal electroshock induced seizures (MES) after 4 hr at 300 mg/kg; Active; format: functional, organism-based; design: dose 300 mg/kg
[26] = system: Rattus norvegicus; test: The effective dose of compound was tested against maximal electroshock induced seizures after oral administration in rat; format: functional
[27] = species on record: Mus musculus; test: (§1) Time of peak effect activity against maximal electroshock induced seizures; format: functional
[28] = system: Mus musculus; test: Anticonvulsant activity against subcutaneous picrotoxin induced seizures after intraperitoneal administration; format: functional
[29] = system: Rattus norvegicus; test: The effective dose of compound (given orally) was tested against subcutaneous administered Metrazol induced seizures in rat; format: functional
[30] = Protective index was calculated (TD50/ED50) in MES assay in mice after intraperitoneal administration; format: functional
[31] = system: Mus musculus; test: The effective dose of compound (given orally) was tested against subcutaneous administered Metrazol induced seizures in mice; format: functional
[32] = species on record: Mus musculus; test: Median hypnotic dose by loss of righting reflex; format: functional
[33] = system: Mus musculus; test: The Neurologic toxicity by measuring rotarod test after 4 hr; No toxicity up to 300 mg/kg; format: organism-based; design: dose 300 mg/kg; conditions: in vivo
[34] = Protective index was calculated (TD50/ED50) in scMET assay in mice after oral administration; format: functional
[35] = system: Mus musculus; test: The Neurologic toxicity by measuring rotarod test after 4 hr up to 300 mg/kg; format: functional, organism-based; design: dose 300 mg/kg
[36] = system: Mus musculus; test: Anticonvulsant activity against subcutaneous administered Metrazol induced seizures (scMET) after 4 hr up to 300 mg/kg; format: functional, organism-based; design: dose 300 mg/kg
[37] = system: Mus musculus; test: The Neurologic toxicity by measuring rotarod test after 0.5 h up to 300 mg/kg; format: functional, organism-based; design: dose 300 mg/kg
[38] = system: Mus musculus; test: The effective dose of compound was tested against maximal electroshock induced seizures after intraperitoneal administration.; format: functional; conditions: ip
[39] = system: Mus musculus; test: The effective dose of compound was tested against maximal electroshock induced seizures after oral administration in mice.; format: functional
[40] = species on record: Mus musculus; test: Median hypnotic dose by loss of righting reflex.; format: functional
[41] = system: Rattus norvegicus; test: The effective dose of compound was tested against maximal electroshock induced seizures after oral administration in rat.; format: functional
[42] = system: Mus musculus; test: The effective dose of compound was tested against subcutaneous administered Metrazol induced seizures in mice; format: functional; conditions: sc
[43] = Median lethal dose was measured after 24 hr.; format: organism-based; conditions: mouse, in vivo
[44] = system: Rattus norvegicus; test: The effective dose of compound was tested against subcutaneous administered Metrazol induced seizures in rat.; format: functional; conditions: sc
[45] = species on record: Mus musculus; test: as §1; format: ADME, organism-based; conditions: in vivo
[46] = (§2) The cytotoxicity after intraperitoneal administration in rat.; format: organism-based; conditions: in vivo, ip
[47] = system: Rattus norvegicus; test: The effective dose of compound was tested against subcutaneous administered Metrazol induced seizures in rat; NE=Not effective; format: functional, organism-based
[48] = species on record: Mus musculus; test: Time of peak effect was determined for activity in MES; format: functional; design: unit not given here
[49] = species on record: Mus musculus; test: (§3) Time of peak effect was determined for toxicity; format: organism-based; design: unit not given here; conditions: in vivo
[50] = system: Mus musculus; test: The effective dose of compound was tested against subcutaneous administered Metrazol induced seizures after intraperitoneal administration;NE=Not effective; format: functional, organism-based
[51] = system: Mus musculus; test: The compound was tested for anticonvulsant activity against (subcutaneous administered) Metrazol induced seizures after intraperitoneal administration; No protection up to 100 mg/kg; format: functional, organism-based; design: dose 100 mg/kg
[52] = in vivo; conditions: rat, ip
[53] = system: Mus musculus; test: The effective dose of compound was tested against subcutaneous administered Metrazol induced seizures after intraperitoneal administration; Not effective; format: functional, organism-based
[54] = system: Mus musculus; test: The compound was tested for anticonvulsant activity against (subcutaneous administered) bicuculline induced seizures after intraperitoneal administration; Protected at 100 mg/ kg; format: functional, organism-based; design: dose 100 mg/ kg
[55] = system: Rattus norvegicus; test: The effective dose of compound was tested against subcutaneous administered Metrazol induced seizures in rat; Not effective; format: functional, organism-based
[56] = species on record: Mus musculus; test: as §3; format: functional
[57] = system: Rattus norvegicus; test: as §2; format: functional; conditions: ip
[58] = system: Mus musculus; test: The effective dose of compound was tested against maximal electroshock induced seizures after intraperitoneal administration; Not active up to 300 mg/kg; format: functional, organism-based; design: dose 300 mg/kg
[59] = Protective index was calculated (TD50/ED50) in scMet assay in mice after intraperitoneal administration; format: functional
[60] = system: Mus musculus; test: The effective dose of compound was tested against subcutaneous administered Metrazol induced seizures after intraperitoneal administration; format: functional
[61] = system: Mus musculus; test: Anticonvulsant activity against subcutaneous administered Metrazol induced seizures (scMET) after 0.5 hr at 300 mg/kg; Active; format: functional, organism-based; design: dose 300 mg/kg

COc1ccc(CC2CCC(=O)NC2=O)cc1 (stereo not given)
Toxicity [1]: No toxicity up to 300 mg/kg | Toxicity [2]: No toxicity up to 300 mg/kg | Activity [3]: inactive | Activity [4]: inactive | Activity [5]: inactive | Activity [6]: Active

O=C1CCC(Cc2ccc(Cl)cc2)C(=O)N1 (stereo not given)
ED50 [7]: 72.8 mg/kg | ED50 [8]: 249 mg/kg | Ratio [9]: >5.18 | Activity [10]: Active | Ratio [11]: > 1.87 | TD50 [12]: > 3000 mg/kg | TD50 [13]: 1220 mg/kg | ED50 [14]: 72.8 mg/kg | ED50 [15]: 137 mg/kg | TD50 [16]: 68.2 mg/kg | Activity [17]: Active | ED50 [18]: 579 mg/kg | TPE [19]: 1 | Toxicity [1]: No toxicity up to 300 mg/kg | Ratio [20]: 16.82 | ED50 [21]: 232 mg/kg | Ratio [22]: 1.17 | LD50 [23]: > 2400 mg/kg | Ratio [24]: 1.87 | Activity [25]: Active | ED50 [26]: 58.3 mg/kg | TPE [27]: 0.5 | ED50 [28]: 158 mg/kg | ED50 [29]: 36.4 mg/kg | Ratio [30]: 8.95 | Activity [6]: Active | ED50 [31]: 274 mg/kg | HD50 [32]: 1282.47 mg/kg | Toxicity [33]: No toxicity up to 300 mg/kg | Ratio [34]: >10.95

O=C1CCC(Cc2ccccc2)C(=O)N1 (stereo not given)
Toxicity [35]: inactive | Activity [10]: Active | Activity [36]: inactive | Activity [4]: inactive | Toxicity [37]: inactive | Activity [5]: inactive

CCC1(C)CC(=O)NC1=O (stereo not given) [ETHOSUXIMIDE]
ED50 [7]: 130 mg/kg | ED50 [38]: > 1000 mg/kg | ED50 [39]: > 2000 mg/kg | ED50 [14]: 130 mg/kg | HD50 [40]: 850.61 mg/kg | ED50 [41]: > 1200 mg/kg | Time of peak effect [19]: 0.5 | ED50 [42]: 192 mg/kg | LD50 at 24 h [43]: 1750 mg/kg | ED50 [44]: 54 mg/kg | Activity [45]: 0.5

O=C1NC(=O)C(c2ccccc2)(c2ccccc2)N1 [PHENYTOIN]
TD50 [46]: > 3000 mg/kg | ED50 [47]: inactive | TPE [48]: 2 | HD50 [40]: 178.34 mg/kg | TPE [49]: 2 | Time of peak effect [19]: 2 h | Activity [27]: 2 h | LD50 at 24 h [43]: 230 mg/kg | ED50 [50]: inactive

NC(=O)N1c2ccccc2C=Cc2ccccc21 [CARBAMAZEPINE]
ED50 [51]: inactive | TD50 [52]: 813 mg/kg | TPE [19]: 0.25 | ED50 [53]: inactive | LD50 [23]: 629 mg/kg | ED50 [54]: Active | ED50 [26]: 8.5 mg/kg | TPE [27]: 0.25 | ED50 [55]: inactive | HD50 [32]: 172.24 mg/kg

CCC1(c2ccccc2)C(=O)NC(=O)NC1=O [PHENOBARBITAL]
TPE [56]: 0.5 | TPE [48]: 1 | HD50 [40]: 135.45 mg/kg | Time of peak effect [19]: 0.5 h | ED50 [57]: 61.1 mg/kg | Activity [27]: 1 h | LD50 at 24 h [43]: 265 mg/kg

O=C1CCC(Cc2ccc(I)cc2)C(=O)N1 (stereo not given)
TD50 [13]: > 1050 mg/kg | ED50 [58]: Not active up to 300 mg/kg | TPE [48]: 1 | Ratio [59]: >12.04 | Toxicity [1]: No toxicity up to 300 mg/kg | Activity [3]: inactive | Activity [4]: inactive | ED50 [60]: 87.2 mg/kg | Activity [6]: Active | Toxicity [33]: No toxicity up to 300 mg/kg | Activity [61]: Active
